Measured values from ChEMBL document CHEMBL1201862, “PubChem BioAssay data set” (2004).
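Exposure lasted 48 hours, with cells grown in 96-well plates and compounds tested at five concentrations. Abbreviation: GI50, concentration required for 50% inhibition of growth.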 Active and inactive are the calls of the source. Cut-off read from the data, not from the text of the source: active = GI50 up to about 1.1 µM and inactive = higher.

Columns and labels:
Experiment in all cases: inhibition of tumour cell growth, NCI panel, 48 h
MDA-MB-435 = tested on: MDA-MB-435
SK-OV-3 = tested on: SK-OV-3
DU-145 = tested on: DU-145
LOX IMVI = tested on: LOX IMVI
NCI-H460 = tested on: NCI-H460
CAKI-1 = tested on: CAKI-1
SK-MEL-5 = tested on: SK-MEL-5
NCI-H226 = tested on: NCI-H226
MCF7 = tested on: MCF7
U-251 = tested on: U-251
OVCAR-3 = tested on: OVCAR-3
MDA-MB-231 = tested on: MDA-MB-231
BT-549 = tested on: BT-549
IGROV-1 = tested on: IGROV-1
M14 = tested on: M14
SR = tested on: SR
HCT-116 = tested on: HCT-116
SN12C = tested on: SN12C
A549 = tested on: A549
Malme-3M = tested on: Malme-3M
HOP-92 = tested on: HOP-92
SK-MEL-28 = tested on: SK-MEL-28
SF-539 = tested on: SF-539
UO-31 = tested on: UO-31
HT-29 = tested on: HT-29
KM12 = tested on: KM12
SNB-75 = tested on: SNB-75
NCI-H23 = tested on: NCI-H23
HL-60 = tested on: HL-60
NCI/ADR-RES = tested on: NCI/ADR-RES
T47D = tested on: T47D
SF-295 = tested on: SF-295
PC-3 = tested on: PC-3
MOLT-4 = tested on: MOLT-4
A498 = tested on: A498
SW-620 = tested on: SW-620
TK-10 = tested on: TK-10
EKVX = tested on: EKVX
UACC-257 = tested on: UACC-257
Hs-578T = tested on: Hs-578T
786-0 = tested on: 786-0
ACHN = tested on: ACHN
OVCAR-5 = tested on: OVCAR-5
RPMI-8226 = tested on: RPMI-8226
COLO 205 = tested on: COLO 205
OVCAR-8 = tested on: OVCAR-8
SNB-19 = tested on: SNB-19
SF-268 = tested on: SF-268
HOP-62 = tested on: HOP-62
CCRF-CEM = tested on: CCRF-CEM
HCT-15 = tested on: HCT-15

SMILES: COc1cc(-c2c3c(cc4c2OCO4)[C@@H](Nc2ccc(-c4ccc(-c5ccc(N[C@@H]6c7cc8c(cc7C(c7cc(OC)c(O)c(OC)c7)[C@H]7C(=O)OC[C@H]67)OCO8)cc5)cc4)cc2)[C@H]2COC(=O)[C@@H]2C3)cc(OC)c1O (stereo partly specified)
- GI50 (MDA-MB-435): 1690 nM (inactive)
- GI50 (SK-OV-3): 2650 nM (inactive)
- GI50 (DU-145): 1930 nM (inactive)
- GI50 (LOX IMVI): 4130 nM (inactive)
- GI50 (NCI-H460): 3050 nM (inactive)
- GI50 (CAKI-1): 2650 nM (inactive)
- GI50 (SK-MEL-5): 2280 nM (inactive)
- GI50 (NCI-H226): 2090 nM (inactive)
- GI50 (MCF7): 2820 nM (inactive)
- GI50 (U-251): 3090 nM (inactive)
- GI50 (OVCAR-3): 2360 nM (inactive)
- GI50 (MDA-MB-231): 2190 nM (inactive)
- GI50 (BT-549): 2840 nM (inactive)
- GI50 (IGROV-1): 1100 nM (active)
- GI50 (M14): 1950 nM (inactive)
- GI50 (SR): 2200 nM (inactive)
- GI50 (HCT-116): 1730 nM (inactive)
- GI50 (SN12C): 5210 nM (inactive)
- GI50 (A549): 3220 nM (inactive)
- GI50 (Malme-3M): 1870 nM (inactive)
- GI50 (HOP-92): 4550 nM (inactive)
- GI50 (SK-MEL-28): 1850 nM (inactive)
- GI50 (SF-539): < 10 nM (active)
- GI50 (UO-31): 3130 nM (inactive)
- GI50 (HT-29): 2310 nM (inactive)
- GI50 (KM12): 1850 nM (inactive)
- GI50 (SNB-75): < 10 nM (active)
- GI50 (NCI-H23): 5130 nM (inactive)
- GI50 (HL-60): 2400 nM (inactive)
- GI50 (NCI/ADR-RES): 1850 nM (inactive)
- GI50 (T47D): 4930 nM (inactive)
- GI50 (SF-295): 1770 nM (inactive)
- GI50 (PC-3): 2040 nM (inactive)
- GI50 (MOLT-4): 3100 nM (inactive)
- GI50 (A498): 4620 nM (inactive)
- GI50 (SW-620): 2700 nM (inactive)
- GI50 (TK-10): 2380 nM (inactive)
- GI50 (EKVX): 4510 nM (inactive)
- GI50 (UACC-257): 10600 nM (inactive)
- GI50 (Hs-578T): 2600 nM (inactive)
- GI50 (786-0): 1760 nM (inactive)
- GI50 (ACHN): 2240 nM (inactive)
- GI50 (OVCAR-5): 4390 nM (inactive)
- GI50 (RPMI-8226): 2520 nM (inactive)
- GI50 (COLO 205): 1700 nM (inactive)
- GI50 (OVCAR-8): 1610 nM (inactive)
- GI50 (SNB-19): 2960 nM (inactive)
- GI50 (SF-268): 2330 nM (inactive)
- GI50 (HOP-62): 2580 nM (inactive)
- GI50 (CCRF-CEM): 3130 nM (inactive)
- GI50 (HCT-15): 1730 nM
